Several values for one entry are separate records, joined by “and”; a condition that tells them apart may be missing. Equal values may be shown once.
Columns and labels:
[1] = molecular target: Glycogen synthase kinase-3 alpha (Homo sapiens, UniProt P49840); experiment: TR-FRET Assay
Method in brief: (§1)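 30 min preinc w/ cpd in assay buffer → kinase rxn → EDTA quench → add detection mix (40 nM SA-d2, 2 nM Tb-pSer641 Ab) → TR-FRET read.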

[2] = molecular target: Glycogen synthase kinase-3 beta (Homo sapiens, UniProt P49841); experiment: TR-FRET Assay
Method in brief: as §1

Glycogen synthase kinase-3 alpha, sequence (P49840 whole entry): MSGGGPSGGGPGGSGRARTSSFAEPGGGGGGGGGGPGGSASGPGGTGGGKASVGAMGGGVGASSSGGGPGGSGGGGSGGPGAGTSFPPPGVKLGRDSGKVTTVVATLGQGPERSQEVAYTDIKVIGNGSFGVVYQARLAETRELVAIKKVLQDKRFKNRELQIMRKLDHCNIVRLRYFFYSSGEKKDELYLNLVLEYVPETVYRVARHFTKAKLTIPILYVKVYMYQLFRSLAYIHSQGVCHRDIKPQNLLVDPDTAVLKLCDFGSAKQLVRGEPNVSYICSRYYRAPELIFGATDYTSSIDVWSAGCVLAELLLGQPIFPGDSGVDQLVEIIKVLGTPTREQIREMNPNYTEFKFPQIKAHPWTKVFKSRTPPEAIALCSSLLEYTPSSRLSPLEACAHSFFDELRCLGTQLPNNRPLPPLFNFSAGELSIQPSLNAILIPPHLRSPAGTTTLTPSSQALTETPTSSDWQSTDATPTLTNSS
Glycogen synthase kinase-3 beta, sequence (P49841 whole entry): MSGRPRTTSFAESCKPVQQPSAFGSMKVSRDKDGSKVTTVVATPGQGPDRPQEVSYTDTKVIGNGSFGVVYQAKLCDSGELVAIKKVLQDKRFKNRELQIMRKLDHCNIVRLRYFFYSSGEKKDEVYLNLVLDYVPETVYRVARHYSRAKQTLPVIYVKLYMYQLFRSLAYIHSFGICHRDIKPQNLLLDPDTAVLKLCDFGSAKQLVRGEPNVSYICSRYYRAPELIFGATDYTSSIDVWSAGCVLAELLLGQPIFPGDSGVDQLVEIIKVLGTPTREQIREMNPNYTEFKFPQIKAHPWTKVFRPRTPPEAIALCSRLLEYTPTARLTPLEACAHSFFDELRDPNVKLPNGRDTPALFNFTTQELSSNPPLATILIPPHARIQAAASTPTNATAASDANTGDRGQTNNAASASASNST

| Compound | IC50 [1] | IC50 [2] |
| --- | --- | --- |
| CC[C@]1(c2cc(N(C)C(C)=O)ccc2F)C2=C(CC(C)(C)CC2=O)NC2N=NC(C)=C21 (some centres undefined) [US20250313563, Compound 929451] | > 5 µM | > 5 µM |
| CCCS(=O)(=O)c1cccc([C@]2(CC)C3=CN=NC3NC3=C2C(=O)CC(C)(C)C3)c1 (some centres undefined) [US20250313563, Compound 929452] | 1 to 5 µM | > 5 µM |
| CC[C@@]1(c2cccc(N(C)c3ccnc(F)c3)c2)C2=CN=NC2NC2=C1C(=O)CC(C)(C)C2 (some centres undefined) [US20250313563, Compound 929453] | 1 to 5 µM | > 5 µM |
| CC[C@@]1(c2cccc(-c3ccnnc3)c2)C2=CN=NC2NC2=C1C(=O)CC(C)(C)C2 (some centres undefined) [US20250313563, Compound 929454] | < 0.1 µM and 0.1 to 1 µM | < 0.1 µM and 1 to 5 µM |
| CC[C@]1(c2cccc(N(C)C(=O)c3ccn(C)n3)c2)C2=CN=NC2NC2=C1C(=O)CC(C)(C)C2 (some centres undefined) [US20250313563, Compound 929455] | > 5 µM | > 5 µM |
| CC[C@@]1(c2cccc(C(F)(F)F)c2)C2=CN=NC2NC2=C1C(=O)N(c1ccccc1)CC2 (some centres undefined) [US20250313563, Compound 929475] | > 5 µM | > 5 µM |
| CC[C@]1(c2cccc(C(F)(F)F)c2)C2=C(N=NC2)NC2=C1C(=O)N(Cc1ccccc1)[C@@H]2C [US20250313563, Compound 930330] | < 0.1 µM | 0.1 to 1 µM |
| CC[C@]1(c2cccc(C(F)(F)F)c2)C2=C(N=NC2)NC2=C1C(=O)N(Cc1ccccc1)[C@H]2C [US20250313563, Compound 930331] | < 0.1 µM | 0.1 to 1 µM |
| CC[C@@]1(c2cccc(C(F)(F)F)c2)C2=C(N=NC2)NC2=C1C(=O)N(Cc1ccccc1)[C@@H]2C [US20250313563, Compound 930332] | 1 to 5 µM | > 5 µM |
| CC[C@@]1(c2cccc(C(F)(F)F)c2)C2=C(N=NC2)NC2=C1C(=O)N(Cc1ccccc1)[C@H]2C [US20250313563, Compound 930333] | > 5 µM | > 5 µM |
| CCC1(c2cccc(O)c2)C2=C(N=NC2)NC2=C1C(=O)CC(C)(C)C2 (centres undefined) [US20250313563, Compound 930334] | < 0.1 µM | 0.1 to 1 µM |
| CC1(C)CC(=O)C2=C(C1)NC1N=NC=C1[C@@]21CCCc2ccccc21 (some centres undefined) [US20250313563, Compound 930565] | 1 to 5 µM | > 5 µM |
| CC1(C)CC(=O)C2=C(C1)NC1N=NC=C1[C@]21CCCc2ccccc21 (some centres undefined) [US20250313563, Compound 930566] | < 0.1 µM | 0.1 to 1 µM |
| CCC1(c2cccc(-c3ccnc(C(C)C)c3)c2)C2=CN=NC2NC2=C1C(=O)CC(C)(C)C2 (centres undefined) [US20250313563, Compound 930569] | 0.1 to 1 µM | 1 to 5 µM |
| CCC1(c2cccc(-c3ccnc4c3CCCC4)c2)C2=CN=NC2NC2=C1C(=O)CC(C)(C)C2 (centres undefined) [US20250313563, Compound 932625] | < 0.1 µM | < 0.1 µM |
| CCC1(c2cccc(-c3ccnc(OC(C)C)c3)c2)C2=CN=NC2NC2=C1C(=O)CC(C)(C)C2 (centres undefined) [US20250313563, Compound 932626] | 0.1 to 1 µM | 0.1 to 1 µM |
| CCC1(c2cccc(-c3ccncc3OC)c2)C2=CN=NC2NC2=C1C(=O)CC(C)(C)C2 (centres undefined) [US20250313563, Compound 932627] | < 0.1 µM | < 0.1 µM |
| CCC1(c2cccc(-c3ccnc(OC)c3C)c2)C2=CN=NC2NC2=C1C(=O)CC(C)(C)C2 (centres undefined) [US20250313563, Compound 932628] | < 0.1 µM | 0.1 to 1 µM |
| CCC1(c2cccc(-c3ccnc(OC(F)F)c3)c2)C2=CN=NC2NC2=C1C(=O)CC(C)(C)C2 (centres undefined) [US20250313563, Compound 932629] | < 0.1 µM | 0.1 to 1 µM |
| CCC1(c2cccc(-c3cc(OC)ncc3F)c2)C2=CN=NC2NC2=C1C(=O)CC(C)(C)C2 (centres undefined) [US20250313563, Compound 932630] | < 0.1 µM | < 0.1 µM |
| CCC1(c2cccc(-c3ccnc4ccccc34)c2)C2=CN=NC2NC2=C1C(=O)CC(C)(C)C2 (centres undefined) [US20250313563, Compound 932631] | < 0.1 µM | < 0.1 µM |
| CC1(C)CC(=O)C2=C(C1)NC1N=NC=C1C21CCCN(S(=O)(=O)Cc2ccccc2)CC1 (centres undefined) [US20250313563, Compound 932632] | < 0.1 µM | 0.1 to 1 µM |
| CC1(C)CC(=O)C2=C(C1)NC1N=NC=C1C21CCCN(c2ccncc2)CC1 (centres undefined) [US20250313563, Compound 932633] | > 5 µM | > 5 µM |
| CCC1(c2cccc(N(C)c3ccc(C(F)(F)F)nc3)c2)C2=CN=NC2NC2=C1C(=O)CC(C)(C)C2 (centres undefined) [US20250313563, Compound 932634] | < 0.1 µM | 0.1 to 1 µM |
| CC[C@]1(c2cccc(N3CCOc4ccccc43)c2)C2=CN=NC2NC2=C1C(=O)CC(C)(C)C2 (some centres undefined) [US20250313563, Compound 932635] | > 5 µM | > 5 µM |
| CC[C@]1(c2cccc(N(C)c3cccc(F)n3)c2)C2=CN=NC2NC2=C1C(=O)CC(C)(C)C2 (some centres undefined) [US20250313563, Compound 932636] | < 0.1 µM | < 0.1 µM |
| CC[C@@]1(c2cccc(-c3ccnc(C)c3)c2)C2=CN=NC2NC2=C1C(=O)C[C@H](C)C2 (some centres undefined) [US20250313563, Compound 932638] | > 5 µM | > 5 µM |

From BindingDB's records for patent US20250313563 (The Broad Institute, 2025)
